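A five-concentration, 48-hour dose response in 96-well plates underlies each endpoint, interpolated linearly between surrounding concentrations. GI50 is the concentration that inhibits growth by half. Definition used: TGI = concentration required for complete inhibition of growth.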
Experiments:
Test in all cases: NCI anticancer screen, dose series, 48 h
[1] = test system: A498 renal
[2] = test system: NCI-H23 lung
[3] = test system: MOLT-4 leukemia
[4] = test system: SR leukemia
[5] = test system: 786-0 renal
[6] = test system: HCT-15 colon
[7] = test system: NCI-H460 lung
[8] = test system: HS 578T breast
[9] = test system: MDA-MB-231 breast
[10] = test system: MDA-MB-435

SMILES	TGI [1]	TGI [2]	TGI [3]	TGI [4]	TGI [5]	TGI [6]	TGI [7]	GI50 [1]	GI50 [8]	TGI [8]	GI50 [2]	GI50 [3]	GI50 [5]	GI50 [6]	GI50 [7]	GI50 [9]	TGI [9]	GI50 [4]	GI50 [10]	TGI [10]
CN(c1ccccc1)c1c(Cl)c(=O)oc2c1ccc1occc12	> 100 µM	> 100 µM	> 100 µM	> 100 µM	> 100 µM	> 100 µM	> 100 µM													
CCOC(=O)C1(C)CCCCC(=O)N1 (configuration not stated)		> 100 µM			> 100 µM	> 100 µM	> 100 µM													
O=P(O)(O)C1(P(=O)(O)O)CC1	> 100 µM	> 100 µM	> 100 µM		> 100 µM	> 100 µM	> 100 µM													
COc1cc(CCc2ccc(N)cc2)cc(OC)c1OC	> 100 µM	> 100 µM	> 100 µM		> 100 µM	> 100 µM	> 100 µM													
O=C(CC(Cl)=C(Cl)Cl)c1cccc(Cl)c1Cl	> 100 µM	> 100 µM	> 100 µM		> 100 µM	> 100 µM	> 100 µM	> 100 µM	> 100 µM	> 100 µM	63.2 µM	24 µM	44.7 µM	47.8 µM	> 100 µM	65.6 µM	> 100 µM			
CCCCCCC[CH2][Sn]1([CH2]CCCCCCC)[O]C(=O)c2cccnc2[O]1	> 100 µM	> 100 µM	> 100 µM	> 100 µM	> 100 µM	> 100 µM	> 100 µM	> 100 µM			> 100 µM	> 100 µM	> 100 µM	> 100 µM	> 100 µM			> 100 µM		
ClC(Cl)[Si]12OCCN(CCO1)CCO2	> 100 µM	> 100 µM	> 100 µM	> 100 µM	> 100 µM		> 100 µM													
CCSc1c2ccccc2c(-c2nc(F)nc(F)n2)n1CCc1ccccc1	> 100 µM	> 100 µM	> 100 µM	> 100 µM	> 100 µM	> 100 µM	> 100 µM													
CC(=O)c1c(C)[nH]c(-c2nc3ccc(N4CCN(C)CC4)cc3[nH]2)c1-c1ccccc1	4.79 µM	39.3 µM	> 100 µM		20.5 µM	18.9 µM	31.4 µM	0.522 µM	0.392 µM	17.2 µM	3.02 µM	6.47 µM	1.71 µM	0.719 µM	4.24 µM	0.728 µM	22.8 µM		0.505 µM	12.9 µM
C[C@]12CCC3[C@@H](CC[C@@H]4c5nonc5CC[C@]34C)C1CC[C@@H]2O (some centres not stated)	62.7 µM	> 100 µM	55.1 µM		75.5 µM	83.5 µM	71.7 µM													
CSC(=Nc1ccccc1)/N=C(\SCc1ccccc1)N(C)C	5.27 µM	3.32 µM		> 100 µM	1.78 µM	2.38 µM	0.691 µM			4.17 µM							2.39 µM			2.48 µM
CC[C@H](C)[C@H](NC(=O)CN(C)C)C(=O)N(C)[C@H](C[C@@H](OC(C)=O)c1nc(C(=O)NC23CC(C(=O)OC)(C2)C3)cs1)C(C)C	> 25 µM	> 25 µM	> 25 µM		> 25 µM	> 25 µM	> 25 µM	1.47 µM	0.125 µM	> 25 µM	1.22 µM	0.119 µM	0.741 µM	1.01 µM	0.408 µM	0.287 µM	> 12.2 µM		0.0461 µM	0.298 µM

Reference: PubChem BioAssay (NCI)
